Results as given in patent US20020051978A1, “Methods and compositions for the identification, assessment, prevention and therapy of human cancers” (priority 2000, published 2002).
Like-named read-outs stand apart in the source and are kept apart here.

How the values were obtained:
[1] = test system: 60 cancer cell lines (NCI 60 cancer cell line series); assay: NCI-DTP in vitro cancer screen, sulforhodamine B (SRB) growth inhibition, 48 hour exposure; assay type: cell-based, human; design: key to sensitivity class Ovarian OVCAR-8 CL6005 / sensitivity class Ovarian SK-OV-3 CL6011 / sensitivity class Prostate DU-145 CL11003 / sensitivity class NSCLC NCI-H522 CL1003 / sensitivity class Ovarian IGROV1 CL6010 / sensitivity class Ovarian OVCAR-4 CL6002 / sensitivity class Prostate PC-3(I) CL11001 / sensitivity class Renal A498 CL9013 / sensitivity class Renal SN12C CL9008: sensitivity class: 1 = Low, 2 = Medium, 3 = High
Procedure, shortened: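 Sixty NCI-DTP cancer lines plated at line-specific densities, dosed on day 1 in duplicate with 5 concentrations at ten-fold intervals. After 48 h exposure, cell mass read by SRB staining; GI50 (50% growth inhibition) taken from dose-response curves and expressed as -log GI50.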

[2] = test system: 60 cancer cell lines (NCI 60 cancer cell line series); settings: cited from earlier work

Sc1ncnc2nc[nH]c12 [6-mercaptopurine]
classification of cell line as Low(1), Medium(2) or High(3) sensitivity to compound ([1]; Breast BT-549 (CL5013)): 1
classification of cell line as Low(1), Medium(2) or High(3) sensitivity to compound ([1]; Breast HS-578T CL5006): 1
classification of cell line as Low(1), Medium(2) or High(3) sensitivity to compound ([1]; Breast MCF7(I) (CL5001)): 2
classification of cell line as Low(1), Medium(2) or High(3) sensitivity to compound ([1]; Breast MCF7/ADRr (CL5002)): 2
classification of cell line as Low(1), Medium(2) or High(3) sensitivity to compound ([1]; Breast MDA-MB-231 CL5005): 1
classification of cell line as Low(1), Medium(2) or High(3) sensitivity to compound ([1]; Breast MDA-MB-435 (CL5011)): 2
classification of cell line as Low(1), Medium(2) or High(3) sensitivity to compound ([1]; Breast MDA-N CL5012): 2
classification of cell line as Low(1), Medium(2) or High(3) sensitivity to compound ([1]; Breast T-47D (CL5014)): 2
classification of cell line as Low(1), Medium(2) or High(3) sensitivity to compound ([1]; CNS SF-268 CL12014): 2
classification of cell line as Low(1), Medium(2) or High(3) sensitivity to compound ([1]; CNS SF-295 CL12015): 2
classification of cell line as Low(1), Medium(2) or High(3) sensitivity to compound ([1]; CNS SF-539 CL12016): 2
classification of cell line as Low(1), Medium(2) or High(3) sensitivity to compound ([1]; CNS SNB-19 (CL12002)): 1
classification of cell line as Low(1), Medium(2) or High(3) sensitivity to compound ([1]; CNS SNB-75(I) CL12005): 2
classification of cell line as Low(1), Medium(2) or High(3) sensitivity to compound ([1]; CNS U251(I) CL12009): 2
classification of cell line as Low(1), Medium(2) or High(3) sensitivity to compound ([1]; Colon COLO-250 CL4010): 2
classification of cell line as Low(1), Medium(2) or High(3) sensitivity to compound ([1]; Colon HCC-2998 (CL4002)): 2
classification of cell line as Low(1), Medium(2) or High(3) sensitivity to compound ([1]; Colon HCT-15 CL4015): 2
classification of cell line as Low(1), Medium(2) or High(3) sensitivity to compound ([1]; Colon HCT-116 (CL4003)): 2
classification of cell line as Low(1), Medium(2) or High(3) sensitivity to compound ([1]; Colon HT29(I) CL4001): 2
classification of cell line as Low(1), Medium(2) or High(3) sensitivity to compound ([1]; Colon KM12 (CL4017)): 2
classification of cell line as Low(1), Medium(2) or High(3) sensitivity to compound ([1]; Colon SW-620 (CL4009)): 2
classification of cell line as Low(1), Medium(2) or High(3) sensitivity to compound ([1]; Leukemia CCRF-CEM(I) (CL7003)): 3
classification of cell line as Low(1), Medium(2) or High(3) sensitivity to compound ([1]; Leukemia HL-60(I) (CL7008)): 2
classification of cell line as Low(1), Medium(2) or High(3) sensitivity to compound ([1]; Leukemia K562(I) CL7005): 3
classification of cell line as Low(1), Medium(2) or High(3) sensitivity to compound ([1]; Leukemia MOLT-4 (CL7006)): 2
classification of cell line as Low(1), Medium(2) or High(3) sensitivity to compound ([1]; Leukemia RPMI-8226(I) (CL7010)): 2
classification of cell line as Low(1), Medium(2) or High(3) sensitivity to compound ([1]; Leukemia SR CL7019): 3
classification of cell line as Low(1), Medium(2) or High(3) sensitivity to compound ([1]; Melanoma LOX IMVI CL10001): 3
classification of cell line as Low(1), Medium(2) or High(3) sensitivity to compound ([1]; Melanoma M14 (CL10014)): 3
classification of cell line as Low(1), Medium(2) or High(3) sensitivity to compound ([1]; Melanoma MALME-3M CL10002): 2
classification of cell line as Low(1), Medium(2) or High(3) sensitivity to compound ([1]; Melanoma SK-MEL-2 (CL10005)): 2
classification of cell line as Low(1), Medium(2) or High(3) sensitivity to compound ([1]; Melanoma SK-MEL-5 (CL10007)): 2
classification of cell line as Low(1), Medium(2) or High(3) sensitivity to compound ([1]; Melanoma SK-MEL-28 (CL10008)): 1
classification of cell line as Low(1), Medium(2) or High(3) sensitivity to compound ([1]; Melanoma UACC-62 (CL10020)): 2
classification of cell line as Low(1), Medium(2) or High(3) sensitivity to compound ([1]; Melanoma UACC-257 (CL10021)): 1
classification of cell line as Low(1), Medium(2) or High(3) sensitivity to compound ([1]; NSCLC A549/ATCC (CL1004)): 1
classification of cell line as Low(1), Medium(2) or High(3) sensitivity to compound ([1]; NSCLC EKVX (CL1008)): 1
classification of cell line as Low(1), Medium(2) or High(3) sensitivity to compound ([1]; NSCLC HOP-62 (CL1026)): 2
classification of cell line as Low(1), Medium(2) or High(3) sensitivity to compound ([1]; NSCLC HOP-92 (CL1029)): 2
classification of cell line as Low(1), Medium(2) or High(3) sensitivity to compound ([1]; NSCLC NCI-H226 CL1013): 1
sensitivity class NSCLC NCI-H23(I) CL1001 ([1]; cell line NSCLC NCI-H23(I), CL1001): 2
sensitivity class NSCLC NCI-H332M CL1017 ([1]; cell line NSCLC NCI-H332M, CL1017): 2
sensitivity class NSCLC NCI-H460 CL1021 ([1]; cell line NSCLC NCI-H460, CL1021): 2
sensitivity class NSCLC NCI-H522 CL1003 ([1]; cell line NSCLC NCI-H522, CL1003): 2
sensitivity class Ovarian IGROV1 CL6010 ([1]; cell line Ovarian IGROV1, CL6010): 2
sensitivity class Ovarian OVCAR-3 CL6001 ([1]; cell line Ovarian OVCAR-3, CL6001): 3
sensitivity class Ovarian OVCAR-4 CL6002 ([1]; cell line Ovarian OVCAR-4, CL6002): 2
sensitivity class Ovarian OVCAR-5 CL6003 ([1]; cell line Ovarian OVCAR-5, CL6003): 2
sensitivity class Ovarian OVCAR-8 CL6005 ([1]; cell line Ovarian OVCAR-8, CL6005): 2
sensitivity class Ovarian SK-OV-3 CL6011 ([1]; cell line Ovarian SK-OV-3, CL6011): 3
sensitivity class Prostate DU-145 CL11003 ([1]; cell line Prostate DU-145, CL11003): 2
sensitivity class Prostate PC-3(I) CL11001 ([1]; cell line Prostate PC-3(I), CL11001): 2
sensitivity class Renal 786-O CL9018 ([1]; cell line Renal 786-O, CL9018): 2
sensitivity class Renal A498 CL9013 ([1]; cell line Renal A498, CL9013): 1
sensitivity class Renal ACHN CL9023 ([1]; cell line Renal ACHN, CL9023): 2
sensitivity class Renal CAKI-1 CL9015 ([1]; cell line Renal CAKI-1, CL9015): 2
sensitivity class Renal RXF-393 CL9016 ([1]; cell line Renal RXF-393, CL9016): 1
sensitivity class Renal SN12C CL9008 ([1]; cell line Renal SN12C, CL9008): 1
sensitivity class Renal TK10 CL9024 ([1]; cell line Renal TK10, CL9024): 2
sensitivity class Renal UO-31 CL9004 ([1]; cell line Renal UO-31, CL9004): 2
-Log (GI50) ([2]; Breast BT-549 (CL5013)): 3.9
-Log (GI50) ([2]; Breast HS-578T CL5006): 4.8
-Log (GI50) ([2]; Breast MCF7(I) (CL5001)): 5.8
-Log (GI50) ([2]; Breast MCF7/ADRr (CL5002)): 5.5
-Log (GI50) ([2]; Breast MDA-MB-231 CL5005): 4.7
-Log (GI50) ([2]; Breast MDA-MB-435 (CL5011)): 5.9
-Log (GI50) ([2]; Breast MDA-N CL5012): 5.8
-Log (GI50) ([2]; Breast T-47D (CL5014)): 5.4
-Log (GI50) ([2]; CNS SF-268 CL12014): 5.4
-Log (GI50) ([2]; CNS SF-295 CL12015): 5.3
-Log (GI50) ([2]; CNS SF-539 CL12016): 5.6
-Log (GI50) ([2]; CNS SNB-19 (CL12002)): 3.9
-Log (GI50) ([2]; CNS SNB-75(I) CL12005): 5.1
-Log (GI50) ([2]; CNS U251(I) CL12009): 4.9
-Log (GI50) ([2]; Colon COLO-250 CL4010): 5.3
-Log (GI50) ([2]; Colon HCC-2998 (CL4002)): 5.5
-Log (GI50) ([2]; Colon HCT-15 CL4015): 5.4
-Log (GI50) ([2]; Colon HCT-116 (CL4003)): 5.6
-Log (GI50) ([2]; Colon HT29(I) CL4001): 5.4
-Log (GI50) ([2]; Colon KM12 (CL4017)): 5.1
-Log (GI50) ([2]; Colon SW-620 (CL4009)): 5.2
-Log (GI50) ([2]; Leukemia CCRF-CEM(I) (CL7003)): 5.9
-Log (GI50) ([2]; Leukemia HL-60(I) (CL7008)): 5.6
-Log (GI50) ([2]; Leukemia K562(I) CL7005): 6.5
-Log (GI50) ([2]; Leukemia MOLT-4 (CL7006)): 5.8
-Log (GI50) ([2]; Leukemia RPMI-8226(I) (CL7010)): 5.8
-Log (GI50) ([2]; Leukemia SR CL7019): 5.9
-Log (GI50) ([2]; Melanoma LOX IMVI CL10001): 6.4
-Log (GI50) ([2]; Melanoma M14 (CL10014)): 6.2
-Log (GI50) ([2]; Melanoma MALME-3M CL10002): 5.4
-Log (GI50) ([2]; Melanoma SK-MEL-2 (CL10005)): 5.2
-Log (GI50) ([2]; Melanoma SK-MEL-5 (CL10007)): 5.1
-Log (GI50) ([2]; Melanoma SK-MEL-28 (CL10008)): 3.5
-Log (GI50) ([2]; Melanoma UACC-62 (CL10020)): 5.8
-Log (GI50) ([2]; Melanoma UACC-257 (CL10021)): 4.8
-Log (GI50) ([2]; NCSLC NCI-H522 CL1003): 5.8
-Log (GI50) ([2]; NSCLC A549/ATCC (CL1004)): 4.6
-Log (GI50) ([2]; NSCLC EKVX (CL1008)): 3.6
-Log (GI50) ([2]; NSCLC HOP-62 (CL1026)): 5.7
-Log (GI50) ([2]; NSCLC HOP-92 (CL1029)): 5.6
-Log (GI50) ([2]; NSCLC NCI-H23(I) CL1001): 5.4
-Log (GI50) ([2]; NSCLC NCI-H226 CL1013): 4.3
-Log (GI50) ([2]; NSCLC NCI-H332M CL1017): 5.1
-Log (GI50) ([2]; NSCLC NCI-H460 CL1021): 5.3
-Log (GI50) ([2]; Ovarian IGROV1 CL6010): 5.1
-Log (GI50) ([2]; Ovarian OVCAR-3 CL6001): 6.1
-Log (GI50) ([2]; Ovarian OVCAR-4 CL6002): 5.1
-Log (GI50) ([2]; Ovarian OVCAR-5 CL6003): 5.1
-Log (GI50) ([2]; Ovarian OVCAR-8 CL6005): 5.6
-Log (GI50) ([2]; Ovarian SK-OV-3 CL6011): 6.0
-Log (GI50) ([2]; Prostate DU-145 CL11003): 5.6
-Log (GI50) ([2]; Prostate PC-3(I) CL11001): 5.4
-Log (GI50) ([2]; Renal 786-O CL9018): 5.7
-Log (GI50) ([2]; Renal A498 CL9013): 4.2
-Log (GI50) ([2]; Renal ACHN CL9023): 5.2
-Log (GI50) ([2]; Renal CAKI-1 CL9015): 5.6
-Log (GI50) ([2]; Renal RXF-393 CL9016): 4.5
-Log (GI50) ([2]; Renal SN12C CL9008): 4.6
-Log (GI50) ([2]; Renal TK10 CL9024): 5.7
-Log (GI50) ([2]; Renal UO-31 CL9004): 5.2
